Measurements from patent publication US20180110824A1, “Macrocyclic Modulators of the Ghrelin Receptor” (Ocera Therapeutics, Inc., priority 2016, published 2018).

Tests used:
hGHS-R1a = molecular target: T1, hGHS-R1a (Homo sapiens, UniProt Q92847); test: hGHS-R1a receptor agonism and desensitization by FLIPR in HEK293 cells; type: cell-based
T1 construct: expressed in transfected cells; host or cells: HEK293
Description: • 1. Studies by FLIPR (Fluorometric Imaging Plate Reader, Molecular Devices). • 2. Assay performed on HEK293 cells expressing hGHS-R1a. • 3. […] A DC50 value is calculated.

[1] = tested on: morphine-delayed gastric emptying and gastrointestinal transit in rats; test: Opioid (morphine)-delayed gastric emptying and gastrointestinal transit in rats; type: in vivo, rat; conditions: i.v., after morphine 3 mg/kg s.c., FIG. 16B
From the text: Opioid analgesics, such as morphine, are well known to delay gastrointestinal transit which is an important side-effect for this class of drugs. The clinical term for this syndrome is opioid bowel dysfunction (OBD). Importantly, patients recovering from abdominal surgery experience post-operative ileus that is further exacerbated by concomitant opioid therapy for post-surgical pain.
• 1. Rats (male, Sprague-Dawley, 250-300 g) are implanted with jugular vein catheters to accommodate dosing of test articles. • 2. Overnight-fasted rats are administered morphine (3 mg/kg s.c.). • 3. […] Radioactivity (^99mTc) in each tissue isolate is measured as a means of measuring the transit of the meal.

[2] = tested on: pulsatile GH release in rat; test: Growth hormone response to test compounds in conscious, freely-moving rats; type: in vivo
Description: The following method is employed to determine the temporal pattern and magnitude of the growth hormone (GH) response to test compounds, administered either systemically or centrally. […] Further results are presented in the Examples below.
Adult male Sprague Dawley rats (225-300 g) were purchased from Charles River Canada (St. Constant, Canada) and individually housed on a 12-h light, 12-h dark cycle (lights on, time: 0600-1800) in a temperature (22±1° C.) and humidity-controlled room. Purina rat chow (Ralston Purina Co., St Louis, Mo.) and tap water were freely available. For these studies, chronic intracerebroventricular (icv) and intracardiac venous cannulas were implanted under sodium pentobarbital (50 mg/kg, ip) anesthesia using known techniques. The placement of the icv cannula was verified by both a positive drinking response to icv carbachol (100 ng/10 μl) injection on the day after surgery and methylene blue dye at the time of sacrifice. After surgery, the rats were placed directly in isolation test chambers with food and water freely available until body weight returned to preoperative levels (usually within 5-7 d). During this time, the rats were handled daily to minimize any stress associated with handling on the day of the experiment. On the test day, food was removed 1.5 h before the start of sampling and was returned at the end. Free moving rats were iv injected with either test sample at various levels (3, 30, 300, 1000 μg/kg) or normal saline at two different time points during a 6-h sampling period. The times 1100 and 1300 were chosen because they reflect typical peak and trough periods of GH secretion, as previously documented. The human ghrelin peptide, (5 μg, Phoenix Pharmaceuticals, Inc., Belmont, Calif.) was used as a positive control in the experiments and was diluted in normal saline just before use. To assess the central actions of test compounds on pulsatile GH release, a 10-fold lower dose of the test sample or normal saline, was administered icv at the same time points, 1100 and 1300. Blood samples (0.35 mL) were withdrawn every 15 min over the 6-h sampling period (time: 1000-1600) from all animals. To document the rapidity of the GH response to the test compound, an additional blood sample was obtained 5 min after each injection. […]
Plasma GH concentrations were measured in duplicate by double antibody RIA using materials supplied by the NIDDK Hormone Distribution Program (Bethesda, Md.), The averaged plasma GH values for 5-6 rats per group are reported in terms of the rat GH reference preparation. […]
• 1. […] Blood samples are drawn at defined, 15-minute intervals throughout the test day and growth hormone (GH) measured directly by radioimmunoassay. • 6. […]

T1 sequence (Q92847 whole entry): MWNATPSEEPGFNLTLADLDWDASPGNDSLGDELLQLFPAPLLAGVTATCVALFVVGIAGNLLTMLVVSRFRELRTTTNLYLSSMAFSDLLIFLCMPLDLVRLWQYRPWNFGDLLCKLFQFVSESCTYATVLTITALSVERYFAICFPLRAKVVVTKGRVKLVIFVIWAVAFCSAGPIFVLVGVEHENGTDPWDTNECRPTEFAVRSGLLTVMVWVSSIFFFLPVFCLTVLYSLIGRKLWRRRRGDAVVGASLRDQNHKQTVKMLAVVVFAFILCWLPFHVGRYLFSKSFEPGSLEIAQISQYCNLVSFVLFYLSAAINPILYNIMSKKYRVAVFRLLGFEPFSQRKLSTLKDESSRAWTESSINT

CC1C(=O)NC(Cc2ccc(F)cc2)C(=O)NCCCc2ccccc2O[C@H](C)CNC(C2CC2)C(=O)N1C (stereo partly shown) [compound 298]
desensitization potency lower than other ghrelin agonists (ghrelin peptide, capromorelin) (hGHS-R1a; FIG. 13C): ~10 fold
DC50 value less potent than the EC50 value (hGHS-R1a; FLIPR, HEK293): > 6 fold
agonist type (hGHS-R1a; FLIPR, HEK293): full agonist
EC50 (hGHS-R1a; FLIPR, HEK293 cells expressing hGHS-R1a, FIG. 13A): 5 nM
DC50 (hGHS-R1a; read-out: DC50 (pre-treatment concentration that desensitizes the ghrelin EC100 response by 50%), 3 minutes pre-treatment, FLIPR, HEK293, FIG. 13B): 32 nM
opioid-delayed gastrointestinal transit [1]: effectively reversed in a dose-dependent manner
IGF-1 levels ([2]; 1000 μg/kg dose): No changes in IGF-1 levels
effect on GH release ([2]; FIG. 9): lack of effect on GH release
effect on ghrelin-induced GH release ([2]; dosed 10 min. prior to ghrelin, FIG. 12B): neither inhibits nor augments ghrelin-induced GH release
pulsatile GH release in comparison to vehicle controls ([2]; doses up to 1000 μg/kg i.v.): no significant difference in pulsatile GH release
